Values of other authors, collected in patent US12268783B2, “Platform drug delivery system utilizing crystal engineering and theanine dissolution” (THEAPRIN PHARMACEUTICALS, INC., priority 2015, dated 2025).

Experiments:
[1] = in humans (so in the source)
[2] = tested on: APP (Swedish Mutation) transgenic SH-SY5Y cell; details: via inhibition of the NMDA receptor pathway
[3] = tested on: cancer cells; details: without an increase in DOX-induced side effects
[4] = tested on: rat brain regions; details: rat cerebral cortex, hippocampus and cerebellum
[5] = tested on: human dopaminergic cell line SH-SY5Y; details: SH-SY5Y cultures subjected to rotenone and dieldrin, treated or pre-treated with L-Theanine
[6] = tested on: human red blood cells (RBC) exposed to venom or purified venom porin; details: RBC exposed to total venom or purified porin

Row | Molecule | LD50 toxicity [1] | protection against glutamate-induced excitotoxicity [2] | effect on antitumor activity of doxorubicin (DOX) [3] | protective effect against aluminum-induced neurotoxicity [4] | DNA fragmentation and apoptotic cell death [5] | potassium efflux from RBC [6]
1 | CCNC(=O)CC[C@H](N)C(=O)O [Theanine, 5-N-ethyl-glutamine] | > 5000 mg/kg | protects | enhances the antitumor activity of doxorubicin | counteracting the damage inflicted by aluminum | decreased DNA fragmentation and apoptotic cell death | 
2 | zinc gluconate |  |  |  |  |  | inhibited potassium efflux
